In the supplement of paper PMC10883282:

Columns and labels:
Test in all cases: relative viability vs DMSO control (72 h) (fraction); higher = more viable cells
[1] = tested on: SW872
Summary of the method: (§1)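 Serially diluted compound, 2.5 µl from source plates spanning 10 mM to 0.0002 mM, was added 24 h after sarcoma cell lines were seeded in 384-well plates at densities targeting 80–90% confluence. Plates then sat 72 h at 37 °C, 5% CO2, with 0.1% DMSO vehicle and a 5 µM positive control. Relative viability came from ATPLite as percent growth, averaged over up to triplicate wells, and was rescaled with 1 as full and 0 as none.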

[2] = tested on: A204
Summary of the method: as §1

[3] = tested on: SYO-1
Summary of the method: as §1

[4] = tested on: SK-ES-1
Summary of the method: as §1

[5] = tested on: SW982
Summary of the method: as §1

[6] = tested on: HS729
Summary of the method: as §1

[7] = tested on: KHOS-240S
Summary of the method: as §1

[8] = tested on: SW1353
Summary of the method: as §1

[9] = tested on: G401
Summary of the method: as §1

[10] = tested on: SW684
Summary of the method: as §1

[11] = tested on: MES-SA
Summary of the method: as §1

[12] = tested on: SK-LMS-1
Summary of the method: as §1

FC(F)(F)c1ccc(CNc2ccc(Cc3c[nH]c4ncc(Cl)cc34)cn2)cn1 [Pexidartinib]
Conditions	relative viability
[1], 0.00017 µM	1.12
[1], 0.00051 µM	1.13
[1], 0.00152 µM	1.1
[1], 0.00457 µM	1.08
[1], 0.01372 µM	1.05
[1], 0.04115 µM	1.06
[1], 0.1235 µM	1.05
[1], 0.3704 µM	1.03
[1], 1.111 µM	1.01
[1], 3.333 µM	0.999
[1], 10 µM	0.974
[2], 0.00017 µM	1.14
[2], 0.00051 µM	1.14
[2], 0.00152 µM	1.09
[2], 0.00457 µM	1.08
[2], 0.01372 µM	1.07
[2], 0.04115 µM	1.08
[2], 0.1235 µM	1.05
[2], 0.3704 µM	0.898
[2], 1.111 µM	0.576
[2], 3.333 µM	0.463
[2], 10 µM	0.393
[3], 0.00017 µM	1.03
[3], 0.00051 µM	1.03
[3], 0.00152 µM	0.953
[3], 0.00457 µM	0.94
[3], 0.01372 µM	0.927
[3], 0.04115 µM	0.925
[3], 0.1235 µM	0.868
[3], 0.3704 µM	0.8
[3], 1.111 µM	0.733
[3], 3.333 µM	0.701
[3], 10 µM	0.659
[4], 0.00017 µM	1.05
[4], 0.00051 µM	1.03
[4], 0.00152 µM	1.02
[4], 0.00457 µM	1.07
[4], 0.01372 µM	1.04
[4], 0.04115 µM	1.06
[4], 0.1235 µM	1.03
[4], 0.3704 µM	1.03
[4], 1.111 µM	0.978
[4], 3.333 µM	1.02
[4], 10 µM	0.915
[5], 0.00017 µM	1.02
[5], 0.00051 µM	1.05
[5], 0.00152 µM	1.06
[5], 0.00457 µM	1.07
[5], 0.01372 µM	1.05
[5], 0.04115 µM	1.05
[5], 0.1235 µM	1.06
[5], 0.3704 µM	1.05
[5], 1.111 µM	1.09
[5], 3.333 µM	1.07
[5], 10 µM	1.12
[6], 0.00017 µM	1.05
[6], 0.00051 µM	1.01
[6], 0.00152 µM	1.01
[6], 0.00457 µM	0.978
[6], 0.01372 µM	0.955
[6], 0.04115 µM	0.962
[6], 0.1235 µM	0.903
[6], 0.3704 µM	0.902
[6], 1.111 µM	0.861
[6], 3.333 µM	0.767
[6], 10 µM	0.683
[7], 0.00017 µM	1.09
[7], 0.00051 µM	1.07
[7], 0.00152 µM	1.07
[7], 0.00457 µM	1.08
[7], 0.01372 µM	1.08
[7], 0.04115 µM	1.08
[7], 0.1235 µM	1.1
[7], 0.3704 µM	1.06
[7], 1.111 µM	0.997
[7], 3.333 µM	1
[7], 10 µM	0.913
[8], 0.00017 µM	1.07
[8], 0.00051 µM	1.03
[8], 0.00152 µM	0.993
[8], 0.00457 µM	1.02
[8], 0.01372 µM	0.988
[8], 0.04115 µM	1.01
[8], 0.1235 µM	1
[8], 0.3704 µM	0.975
[8], 1.111 µM	0.897
[8], 3.333 µM	0.896
[8], 10 µM	0.85
[9], 0.00017 µM	1.03
[9], 0.00051 µM	1.036
[9], 0.00152 µM	1.03
[9], 0.00457 µM	1.05
[9], 0.01372 µM	1.02
[9], 0.04115 µM	1
[9], 0.1235 µM	0.685
[9], 0.3704 µM	0.9956
[9], 1.111 µM	0.9873
[9], 3.333 µM	0.95
[9], 10 µM	0.8332
[10], 0.00017 µM	1.14
[10], 0.00051 µM	1.2
[10], 0.00152 µM	1.19
[10], 0.00457 µM	1.2
[10], 0.01372 µM	1.15
[10], 0.04115 µM	1.15
[10], 0.1235 µM	1.16
[10], 0.3704 µM	1.13
[10], 1.111 µM	1.13
[10], 3.333 µM	1.14
[10], 10 µM	1.12
[11], 0.00017 µM	0.96
[11], 0.00051 µM	0.947
[11], 0.00152 µM	0.954
[11], 0.00457 µM	0.936
[11], 0.01372 µM	0.911
[11], 0.04115 µM	0.934
[11], 0.1235 µM	0.923
[11], 0.3704 µM	0.883
[11], 1.111 µM	0.892
[11], 3.333 µM	0.872
[11], 10 µM	0.69
[12], 0.00017 µM	1.03
[12], 0.00051 µM	1.06
[12], 0.00152 µM	1.05
[12], 0.00457 µM	1.04
[12], 0.01372 µM	1.03
[12], 0.04115 µM	1.03
[12], 0.1235 µM	1.05
[12], 0.3704 µM	1.02
[12], 1.111 µM	0.995
[12], 3.333 µM	1
[12], 10 µM	0.864
